PubChem BioAssay (NCI)
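All cell lines were grown in 96-well plates and treated with compound for 48 hours. GI50 = concentration required for 50% inhibition of growth. At the TGI there is no net growth.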

System: MDA-MB-468 breast
Assay: growth of human tumour cells (NCI), 48 h

SMILES	GI50 [µM]	TGI [µM]
COc1cc2cc(Oc3ccc(NC(=O)Nc4cc(C(F)(F)F)cc(C(F)(F)F)c4)cc3)c(C)nc2cc1OCCN1CCOCC1	1.22	3.76
COc1ccc(-c2cc(-c3ccc(Nc4nc(Nc5ccccc5)nc(Nc5ccc(Cl)cc5)n4)cc3)nc(N)n2)cc1	10.2	34.2
COc1cc(CNCCCCCCN2C(=O)c3cccc4cccc(c34)C2=O)ccc1O	2.78	9.33
CCCCN(CCCC)C(=O)[C@H](CC)[C@@H]1CC[C@@H](C)[C@@H]([C@H](C)[C@@H](O)[C@@H](C)C(=O)[C@H](CC)C2O[C@]3(C=C[C@@H](O)[C@]4(CC[C@@](C)([C@H]5CC[C@](O)(CC)[C@H](C)O5)O4)O3)[C@H](C)C[C@@H]2C)O1 (stereo partly specified)	1.47	3.89
CCN1CCN(c2nc(C)cc(N(CCCNc3ccnc4cc(Cl)ccc34)Cc3ccc4c(c3)OCO4)n2)CC1	1.92	4.93
C=C1C(=O)O[C@H]2[C@H]1CC/C(COC(=O)c1cc(OC)c(OC)c(OC)c1)=C\CC[C@@]1(C)O[C@@H]21	0.344	2.02
NS(=O)(=O)c1ccc(Nc2cc(-c3ccc(O)c(F)c3)[nH]n2)cc1	10.5	> 25
Fc1ccc(-c2cc3nc(C(Cl)Cl)nc(-c4ccc(Cl)cc4)n3n2)cc1	1.73	4.12
c1cc(N[C@@H]2CCNC2)nc(-c2cnc3ccc(-c4cn[nH]c4)cn23)c1	0.957	2.52
CSC1=NC(=Nc2c(C)cccc2C)C2(CCC(C(C)(C)C)CC2)N1c1ccc(Cl)cc1 (stereo unspecified)	4.83	> 100
COC1(CC[C@@H](C)COC2OC(CO)C(O)C(O)C2O)O[C@H]2C[C@H]3[C@@H]4CC=C5C[C@@H](OC6OC(CO)C(OC7OC(C)C(O)C(O)C7O)C(O)C6OC6OC(C)C(O)C(O)C6O)CC[C@]5(C)[C@H]4CC[C@]3(C)[C@H]2[C@@H]1C (stereo partly specified)	1.38	3.01
COc1cc(-c2cc(/C=C/C(=O)c3ccc(F)c(F)c3)[nH]n2)cc(OC)c1OC	2.27	9.47
N#CCn1c(=O)c(Oc2ccc(F)cc2F)cc2cnc(NC3CCOCC3)nc21	> 18.9	> 25
Oc1ccc(Cl)cc1C(c1cc(Cl)ccc1O)C(Cl)(Cl)Cl	2.58	8.11
O=C(Nc1ccc(Oc2ccc3nc(NC(=O)c4ccco4)[nH]c3c2)cc1)Nc1cc(C(F)(F)F)ccc1F	1.37	11.5
COc1cc2oc(-c3cccc(C(=O)Nc4ccc(Cl)cc4)c3)cc(=O)c2c(OC)c1OC	3.64	85.7
COc1cc2c(c(OC)c1OC)-c1ccc(NN(C(=O)c3ccccc3)C(=O)c3ccccc3)c(=O)cc1[C@@H](NC(C)=O)CC2 (tested in a mixture with another compound)	2.08	6.71
c1ccc(-c2oc(-c3ccccc3)c(CN3CCCCC3)c2CN2CCCCC2)cc1	1.45	3.98
O=C1CC(c2c[nH]c3ccc(F)cc23)C(=O)N1 (stereo unspecified)	> 100	> 100
CC(C)(C)c1cc(C(=O)Nc2ccccc2C(=O)NCCN)cc(C(C)(C)C)c1	2.01	3.59
CN(C)c1ccc(/C=C\c2ccnc3ccccc23)cc1	0.233	0.564
CC(=O)Nc1ccc(C(=O)CCl)cc1	1.81	4.52
CN1CCN(CC(=O)N(C)c2ccc(N=C(c3ccccc3)c3c(O)[nH]c4ccc(C#N)cc34)cc2)CC1	10.7	24.1
